One experiment has as its system NCI-H358 (K-Ras G12C). As to the kind of experiment: CellTiter-Glo Cell Viability Assay. Format: cell-based. Particulars: Homo sapiens, NCI-H358, 120 h; H358, 5-day treatment. The protocol:
Determination of Cell Viability in RAS Mutant Cancer Cell Lines
Protocol: CellTiter-Glo® Cell Viability Assay
Note—The following protocol describes a procedure for monitoring cell viability of K-Ras mutant cancer cell lines in response to a compound of the invention. Other RAS isoforms may be employed, though the number of cells to be seeded will vary based on cell line used.
Test compounds (132.5 nl) were directly dispensed into the assay plates containing cells. […] On day 5, assay plates and their contents were equilibrated to room temperature for approximately 30 minutes. […] Luminescence was measured using the PerkinElmer Enspire. Data were normalized by the following: (Sample signal/Avg. DMSO)*100. The data were fit using a four-parameter logistic fit.
In general terms: In ATP-based viability assays light output follows the ATP content of the culture.

The target in another experiment is NRAS Q61K (Homo sapiens, UniProt P01111+P62937, Q61K). Kind of experiment: Disruption of BRAF RBD interaction with Ras (FRET / MOA assay). Format: biochemical. Particulars: read-out: NRAS Q61K FRET data IC50. The protocol:
(§1) Compound is present in plate wells as a 10-point 3-fold dilution series starting at a final concentration of 30 μM. […] Compounds that facilitate disruption of a Ras:RAF complex are identified as those eliciting a decrease in the TR-FRET ratio relative to DMSO control wells.
(§2) Note—The following protocol describes a procedure for monitoring disruption of K-Ras G12C (GMP-PNP) binding to BRAF^RBD by a compound of the invention. This protocol may also be executed substituting other Ras proteins or nucleotides.
(§3) The purpose of this biochemical assay was to measure the ability of test compounds to facilitate ternary complex formation between a nucleotide-loaded K-Ras isoform and Cyclophilin A; the resulting ternary complex disrupts binding to a BRAF^RBD construct, inhibiting K-Ras signaling through a RAF effector. Data is reported as IC50 values.
(§4) Compound was present in plate wells as a 10-point 3-fold dilution series starting at a final concentration of 30 μM. […] Compounds that facilitate disruption of a K-Ras:RAF complex were identified as those eliciting a decrease in the TR-FRET ratio relative to DMSO control wells.

In another experiment the target is NRAS Q61R (Homo sapiens, UniProt P01111+P62937, Q61R). The description is as above. The class given is biochemical. The note with it: read-out: NRAS Q61R FRET data IC50. As to the method:
as §1, §2, §3, §4

Where only a bound is given, the exact number is not on record here.

The term IC50 denotes the midpoint of a concentration-inhibition curve.

Sequence of NRAS Q61K (P01111 whole entry Q61K): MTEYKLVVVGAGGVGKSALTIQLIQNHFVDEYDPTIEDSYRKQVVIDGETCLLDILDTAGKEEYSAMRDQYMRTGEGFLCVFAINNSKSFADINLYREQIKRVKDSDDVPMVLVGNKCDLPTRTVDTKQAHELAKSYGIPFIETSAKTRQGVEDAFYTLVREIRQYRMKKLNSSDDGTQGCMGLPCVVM
Sequence of NRAS Q61K (P62937 whole entry): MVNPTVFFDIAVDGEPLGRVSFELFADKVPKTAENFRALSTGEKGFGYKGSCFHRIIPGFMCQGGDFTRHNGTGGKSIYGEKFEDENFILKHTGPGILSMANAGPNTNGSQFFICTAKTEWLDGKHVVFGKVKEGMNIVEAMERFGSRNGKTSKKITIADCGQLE
Sequence of NRAS Q61R (P01111 whole entry Q61R): as the sequence (P01111 whole entry Q61K) above, with K61R counted along it
Sequence of NRAS Q61R (P62937 whole entry): as the sequence (P62937 whole entry) above

`CCn1c(-c2cccnc2[C@H](C)OC)c2c3cc(ccc31)-c1csc(n1)C[C@H](NC(=O)[C@H](C(C)C)N(C)C(=O)N1CCN3CCOCC3C1)C(=O)N1CCC[C@H](N1)C(=O)OCC(C)(C)C2` (some centres unmarked) [Compound A296] yielded an IC50 in the experiment on NCI-H358 (K-Ras G12C) below 0.01 µM.

With `CCn1c(-c2cccnc2[C@H](C)OC)c2c3cc(ccc31)-c1cc(O)cc(c1)C[C@H](NC(=O)[C@H](C(C)C)N(C)C(=O)[C@@H]1OCC[C@H]1c1ccccc1)C(=O)N1CCC[C@H](N1)C(=O)OCC(C)(C)C2` (atropisomer, axis not shown) [Compound A584], the half-maximal inhibitory concentration (IC50) at NRAS Q61K and at NRAS Q61R was 0.01 to 0.1 µM in each case.

`CCn1c(-c2cccnc2[C@H](C)OC)c2c3cc(ccc31)-c1csc(n1)C[C@H](NC(=O)[C@H](C(C)C)N(C)C(=O)N1C[C@H]3COC[C@H]3C1)C(=O)N1CCC[C@H](N1)C(=O)OCC(C)(C)C2` (atropisomer, axis not shown) [Compound A312]: the half-maximal inhibitory concentration (IC50) at NRAS Q61K and at NRAS Q61R was 0.01 to 0.1 µM throughout.

As to `CCn1c(-c2cccnc2[C@H](C)OC)c2c3cc(ccc31)-c1csc(n1)C[C@H](NC(=O)[C@H](C(C)C)N(C)C(=O)N1CC([C@H](CO)OC)C1)C(=O)N1CCC[C@H](N1)C(=O)OCC(C)(C)C2` (atropisomer, axis not shown) [Compound A515], the 50% inhibitory concentration (IC50) in the experiment on NCI-H358 (K-Ras G12C) is below 0.01 µM; on NRAS Q61K it was 0.01 to 0.1 µM.

With `CCn1c(-c2cc(N3CCN(C)CC3)cnc2[C@H](C)OC)c2c3cc(ccc31)-c1csc(n1)C[C@H](NC(=O)[C@H](C(C)C)N(C)C(=O)[C@H]1CCCS1(=O)=O)C(=O)N1CCC[C@H](N1)C(=O)OCC(C)(C)C2` (atropisomer, axis not shown) [Compound A439], the IC50 in the experiment with NCI-H358 (K-Ras G12C) is below 0.01 µM.

Molecule `CCn1c(-c2cc(N3CCN(C)CC3)cnc2[C@H](C)OC)c2c3cc(ccc31)-c1csc(n1)C[C@H](NC(=O)[C@H](C(C)C)N(C)C(=O)[C@@H]1OCC[C@@H]1c1cccnc1)C(=O)N1CCC[C@H](N1)C(=O)OCC(C)(C)C2` (atropisomer, axis not shown) [Compound A490] showed a concentration for half-maximal inhibition (IC50) in the experiment with NCI-H358 (K-Ras G12C) below 0.01 µM.

`CCn1c(-c2cccnc2[C@H](C)OC)c2c3cc(ccc31)-c1csc(n1)C[C@H](NC(=O)[C@H](C(C)C)N(C)C(=O)N1CCN(C(=O)C3CC3)CC1)C(=O)N1CCC[C@H](N1)C(=O)OCC(C)(C)C2` (atropisomer, axis not shown) [Compound A607] displayed an IC50 with NCI-H358 (K-Ras G12C) below 0.01 µM.

`CCn1c(-c2cccnc2[C@H](C)OC)c2c3cc(ccc31)-c1csc(n1)C[C@H](NC(=O)[C@H](C(C)C)N(C)C(=O)N1CCO[C@H](CN(C)C)C1)C(=O)N1CCC[C@H](N1)C(=O)OCC(C)(C)C2` (atropisomer, axis not shown) [Compound A590]: the half-maximal inhibitory concentration (IC50) was below 0.01 µM in the experiment with NCI-H358 (K-Ras G12C) and 0.01 to 0.1 µM on NRAS Q61K.

For the molecule `CCn1c(-c2cccnc2[C@H](C)OC)c2c3cc(ccc31)-c1csc(n1)C[C@H](NC(=O)[C@H](C(C)C)N(C)C(=O)N1CC(C3COC3)C1)C(=O)N1CCC[C@H](N1)C(=O)OCC(C)(C)C2` (atropisomer, axis not shown) [Compound A298], the IC50 in the experiment with NCI-H358 (K-Ras G12C) was below 0.01 µM.

For the molecule `CCn1c(-c2cccnc2[C@H](C)OC)c2c3cc(ccc31)-c1cc(O)cc(c1)C[C@H](NC(=O)C1CCC3C1C3(F)F)C(=O)N1CCC[C@H](N1)C(=O)OCC(C)(C)C2` (some centres unmarked) [Compound A181], the concentration for half-maximal inhibition (IC50) on NRAS Q61R is above 10 µM.

Take `CCn1c(-c2cccnc2[C@H](C)OC)c2c3cc(ccc31)-c1csc(n1)C[C@H](NC(=O)[C@H](C(C)C)N(C)C(=O)N1CCC13COC3)C(=O)N1CCC[C@H](N1)C(=O)OCC(C)(C)C2` (atropisomer, axis not shown) [Compound A560]: the concentration for half-maximal inhibition (IC50) at NRAS Q61K and on NRAS Q61R was 0.01 to 0.1 µM in each case.

Take `CCn1c(-c2cccnc2[C@H](C)OC)c2c3cc(ccc31)-c1cc(O)cc(c1)C[C@H](NC(=O)[C@H](C(C)C)N(C)C(=O)[C@@H]1OCC[C@@H]1c1ccccc1)C(=O)N1CCC[C@H](N1)C(=O)OCC(C)(C)C2` (atropisomer, axis not shown) [Compound A415]: the IC50 on NRAS Q61K and on NRAS Q61R was 0.01 to 0.1 µM in each case.

On to `CCn1c(-c2cccnc2[C@H](C)OC)c2c3cc(ccc31)-c1cc(O)cc(c1)C[C@H](NC(=O)[C@H](C(C)C)N(C)C(=O)[C@@H]1CCN(C(=O)OC)C1)C(=O)N1CCC[C@H](N1)C(=O)OCC(C)(C)C2` (atropisomer, axis not shown) [Compound A365], for which the IC50 in the experiment on NCI-H358 (K-Ras G12C) was below 0.01 µM.

On to `CCn1c(-c2cccnc2[C@H](C)OC)c2c3cc(ccc31)-c1csc(n1)C[C@H](NC(=O)[C@H](C(C)C)N(C)C(=O)N1CCO[C@H](C)C1)C(=O)N1CCC[C@H](N1)C(=O)OCC(C)(C)C2` (atropisomer, axis not shown) [Compound A310], for which the 50% inhibitory concentration (IC50) in the experiment on NCI-H358 (K-Ras G12C) was below 0.01 µM; on NRAS Q61K, 0.01 to 0.1 µM.

Consider `CCn1c(-c2cccnc2[C@H](C)OC)c2c3cc(ccc31)-c1csc(n1)C[C@H](NC(=O)[C@H](C(C)C)N(C)C(=O)N1CC([C@@H](CO)OC)C1)C(=O)N1CCC[C@H](N1)C(=O)OCC(C)(C)C2` (atropisomer, axis not shown) [Compound A514], for which the results for the half-maximal inhibitory concentration (IC50) in the experiment with NCI-H358 (K-Ras G12C) and at NRAS Q61K were below 0.01 µM and 0.01 to 0.1 µM, respectively.

Regarding `CCn1c(-c2cccnc2[C@H](C)OC)c2c3cc(ccc31)-c1csc(n1)C[C@H](NC(=O)[C@H](C(C)C)N(C)C(=O)N1CC(O)C1)C(=O)N1CCC[C@H](N1)C(=O)OCC(C)(C)C2` (atropisomer, axis not shown) [Compound A358], the figures for the IC50 with NCI-H358 (K-Ras G12C) and at NRAS Q61K were below 0.01 µM and 0.01 to 0.1 µM, respectively.

Regarding `CCn1c(-c2cccnc2[C@H](C)OC)c2c3cc(ccc31)-c1csc(n1)C[C@H](NC(=O)[C@H](C(C)C)N(C)C(=O)N1CC(N3CCOCC3)C1)C(=O)N1CCC[C@H](N1)C(=O)OCC(C)(C)C2` (atropisomer, axis not shown) [Compound A338], the IC50 in the experiment with NCI-H358 (K-Ras G12C) is below 0.01 µM.

As for `CCn1c(-c2cccnc2[C@H](C)OC)c2c3cc(ccc31)-c1csc(n1)C[C@H](NC(=O)[C@H](C(C)C)N(C)C(=O)N1CC(C(=O)N3CCOCC3)C1)C(=O)N1CCC[C@H](N1)C(=O)OCC(C)(C)C2` (atropisomer, axis not shown) [Compound A543], the IC50 in the experiment with NCI-H358 (K-Ras G12C) is below 0.01 µM; at NRAS Q61K, 0.01 to 0.1 µM.

Consider `CO[C@@H](C)c1ncccc1-c1c2c3cc(ccc3n1CC(F)(F)F)-c1csc(n1)C[C@H](NC(=O)[C@H](C(C)C)N(C)C(=O)N1CC(N(C)C)C1)C(=O)N1CCC[C@H](N1)C(=O)OCC(C)(C)C2` [Compound A303], for which the IC50 in the experiment on NCI-H358 (K-Ras G12C) was below 0.01 µM.

In the case of `CCn1c(-c2cccnc2[C@H](C)OC)c2c3cc(ccc31)-c1csc(n1)C[C@H](NC(=O)[C@H](C(C)C)N(C)C(=O)N(C)N(C)C)C(=O)N1CCC[C@H](N1)C(=O)OCC(C)(C)C2` (atropisomer, axis not shown) [Compound A454], the IC50 on NRAS Q61K and at NRAS Q61R was 0.01 to 0.1 µM each time.

Regarding `CCn1c(-c2cccnc2[C@H](C)OC)c2c3cc(ccc31)-c1csc(n1)C[C@H](NC(=O)[C@H](C(C)C)N(C)C(=O)N1CCOC3(COC3)C1)C(=O)N1CCC[C@H](N1)C(=O)OCC(C)(C)C2` (atropisomer, axis not shown) [Compound A475], the IC50 on NRAS Q61K and on NRAS Q61R was 0.01 to 0.1 µM each time.

Turning to `CCn1c(-c2cccnc2[C@H](C)OC)c2c3cc(ccc31)-c1csc(n1)C[C@H](NC(=O)[C@H](C(C)C)N(C)C(=O)N1CC3(CC(N4CC(F)C4)C3)C1)C(=O)N1CCC[C@H](N1)C(=O)OCC(C)(C)C2` (atropisomer, axis not shown) [Compound A457], the IC50 was below 0.01 µM with NCI-H358 (K-Ras G12C) and 0.01 to 0.1 µM at NRAS Q61K.

As to `CCn1c(-c2cccnc2[C@H](C)OC)c2c3cc(ccc31)-c1csc(n1)C[C@H](NC(=O)[C@H](C(C)C)N(C)C(=O)N1CC(S(=O)(=O)N(C)C)C1)C(=O)N1CCC[C@H](N1)C(=O)OCC(C)(C)C2` (atropisomer, axis not shown) [Compound A551], the 50% inhibitory concentration (IC50) with NCI-H358 (K-Ras G12C) is below 0.01 µM; at NRAS Q61K, 0.01 to 0.1 µM.

Consider `CCn1c(-c2cccnc2[C@H](C)OC)c2c3cc(ccc31)-c1csc(n1)C[C@H](NC(=O)[C@H](C(C)C)N(C)C(=O)N1CCC[C@H](N(C)C)CC1)C(=O)N1CCC[C@H](N1)C(=O)OCC(C)(C)C2` (atropisomer, axis not shown) [Compound A493], for which, at NRAS Q61K, the concentration for half-maximal inhibition (IC50) is 0.01 to 0.1 µM.

With `CCn1c(-c2cccnc2[C@H](C)OC)c2c3cc(ccc31)-c1csc(n1)C[C@H](NC(=O)[C@H](C(C)C)N(C)C(=O)N1CC([C@H](C)N(C)C)C1)C(=O)N1CCC[C@H](N1)C(=O)OCC(C)(C)C2` (atropisomer, axis not shown) [Compound A538], at NRAS Q61K, the 50% inhibitory concentration (IC50) fell in the range of 0.01 to 0.1 µM.

Turning to `CCn1c(-c2cccnc2[C@H](C)OC)c2c3cc(ccc31)-c1csc(n1)C[C@H](NC(=O)[C@H](C(C)C)N(C)C(=O)N1CCC(C(=O)C(F)(F)F)CC1)C(=O)C1CCC[C@H](N1)C(=O)OCC(C)(C)C2` [Compound A422], the concentration for half-maximal inhibition (IC50) at NRAS Q61K and at NRAS Q61R was 0.01 to 0.1 µM each time.

The record behind these values is patent publication US20230374035A1, “RAS INHIBITORS” (Revolution Medicines, Inc., priority 2019, published 2023).
